Measurements from PMC11253855, “Phosphonodiamidate prodrugs of phosphoantigens (ProPAgens) exhibit potent Vγ9/Vδ2 T cell activation and eradication of cancer cells” (RSC Medicinal Chemistry, 2024).

What was measured:
[1] = test system: Vγ9/Vδ2 T cells; experiment: In vitro Vγ9/Vδ2 T cell activation assay (PBMCs, CD69+ CD25+ by flow cytometry); format: cell-based, human; conditions: Homo sapiens, T-cell, read-out: EC50 (activation of Vγ9/Vδ2 T cells)
Method: Subsequently, we studied the ability of these HMBP phosphonodiamidate ProPAgens to activate Vγ9/Vδ2 T cells and elicit their lysis of cancer cells in vitro. For this, peripheral blood mononuclear cells (PBMCs) derived from healthy donors and containing Vγ9/Vδ2 T cells were incubated with increasing concentrations of zoledronate or phosphonodiamidate HMBP ProPAgens 9a–d and 14a–d (up to 100 μM) (Fig. 4). Peripheral blood γδ T cells lack appreciable levels of surface CD69 or CD25 under steady-state conditions, but TCR stimulation upregulates both T cell activation markers.[6] Thus, PAg-responsive Vγ9/Vδ2 T cells were then assessed for the upregulation of CD69 and CD25.
Fig. 4 In vitro phosphonodiamidate ProPAgen-mediated activation of Vγ9/Vδ2 T cells, following overnight incubation with zoledronate, and HMBP ProPAgens 9a–d and 14a–d. Levels of activation are represented as % of Vγ9/Vδ2 T cells that are CD69+ CD25+. Data is shown as mean ± SE (n = 4). (A) Activation of Vγ9/Vδ2 stimulated by phosphonodiamidate ProPAgens 9a–d. (B) Activation of Vγ9/Vδ2 stimulated by ProPAgens 14a–d. (C) Activation of Vγ9Vδ2 stimulated by zoledronate (Zol). (D) EC50 values were calculated using GraphPad Prism v9 based on the results of the activation assay.
As for the activation of Vγ9/Vδ2 T cells by the phosphonodiamidate ProPAgens (9a–d and 14a–d), these were initially tested using a concentration range from […] to 100 μM (Fig. 4A and B).
Healthy donor peripheral blood mononuclear cells (PBMCs) were harvested as previously described.[20] To assess the activation of Vγ9/Vδ2 T cells, PBMCs were seeded into U-bottom tissue culture-treated 96-well plates at a cell density of 500 000 cells per well. The cells were incubated with medium-only (control), in the presence of zoledronate at 10 pM to 100 μM, and with HMBP ProPAgens initially at 10 pM to 100 μM, and then at 1 aM to 100 μM for compounds 9d and 14d in a separate experiment. The cells were incubated at 37 °C/5% CO2 overnight, and stained by flow cytometry for the following markers: viability (Zombie Aqua 1 : 400), CD3 (BV421 1 : 100), CD8 (BV650 1 : 200), Vγ9 (PEcy5 1 : 400), Vδ2 (APC 1 : 200), CD69 (PE 1 : 25), CD25 (FITC 1 : 100). The samples were acquired via LSRFortessa X20 (BD Biosciences), and the data obtained were analyzed using FlowJo v10 and GraphPad Prism v9 software.

[2] = Human serum stability assay (31P NMR); format: in vitro ADME; conditions: 37 °C, read-out: human serum stability t1/2
Method: Upon synthesis, we first studied whether these phosphonodiamidate ProPAgens are stable in human serum. As a representative of this class of phosphonodiamidate ProPAgens in the serum stability studies, we chose ProPAgen 9b, which has an iPr ester like the two FDA-approved phosphoramidate prodrugs, sofosbuvir and tenofovir alafenmide.[24,33] Thus, ProPAgen 9b was incubated with human serum at 37 °C for […] and monitored the sample by ^31P NMR, as we reported previously.[20] […] Following the incubation of the phosphonodiamidate ProPAgen 9b with human serum and monitoring of the sample by ^31P-NMR, these original 9b^31P-NMR peaks remained present through the 7.5 h of the study, and no new ^31P-NMR peaks were observed. […] This stability profile is in line with the aryloxy diester phosphoramidate prodrugs of these monophosphonates that we reported[20] before and that of the analogous symmetrical nucleoside phosphorodiamidate prodrugs.[26]
Fig. 2 Stability of the HMBP phosphonodiamidate ProPAgen 9b in human serum at 37 °C for 7.5 h as monitored by ^31P NMR. […]
This experiment was carried out as previously reported.[20,26,40] […] After recording the first ^31P NMR data, 0.3 mL human serum (Merck Life Sciences) was added and monitored by NMR. […] Recorded data were processed and analyzed with Bruker Topspin 2.1 software.

[3] = molecular target: T1, carboxypeptidase Y (Saccharomyces cerevisiae, UniProt P00729); experiment: Carboxypeptidase Y assay (31P NMR); format: in vitro ADME; conditions: recombinant carboxypeptidase Y, 37 °C, 6.5 h
T1 sequence (P00729 112-532): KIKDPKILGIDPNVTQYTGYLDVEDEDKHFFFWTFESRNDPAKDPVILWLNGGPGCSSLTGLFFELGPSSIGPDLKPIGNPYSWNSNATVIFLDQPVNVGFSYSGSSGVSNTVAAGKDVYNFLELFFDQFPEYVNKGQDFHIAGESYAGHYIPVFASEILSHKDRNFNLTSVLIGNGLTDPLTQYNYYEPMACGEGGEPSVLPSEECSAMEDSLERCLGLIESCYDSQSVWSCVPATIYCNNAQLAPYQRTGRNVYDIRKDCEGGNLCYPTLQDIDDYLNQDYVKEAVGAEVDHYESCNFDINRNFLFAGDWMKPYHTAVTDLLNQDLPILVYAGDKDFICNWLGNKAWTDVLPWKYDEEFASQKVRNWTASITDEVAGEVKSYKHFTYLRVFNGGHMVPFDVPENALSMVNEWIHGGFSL
Method: Fig. 3 Metabolism of diamidate ProPAgens.
With this postulated mechanism of phosphonodiamidate prodrugs in mind, we subsequently incubated the phosphonodiamidate ProPAgen 9b with recombinant carboxypeptidase Y at 37 °C and monitored the reaction by ^31P-NMR for 6.5 h. […] Upon addition of carboxypeptidase Y and within 0.5 h, a new ^31P NMR triplet (δP = 6.82, 7.27 and 7.72 ppm) appeared and became prominent as the assay proceeded while the original ^31P NMR peaks (δP = 14.16, 14.67 and 15.14 ppm) corresponding to ProPAgen 9b reduced over time.
This experiment was carried out as previously reported.[20,26,40] 5.0 mg of the phosphonodiamidate ProPAgen 9b was dissolved in 0.2 mL of acetone, and 0.4 mL of Trizma buffer (pH 7.4) was added followed by 0.5 mg carboxypeptidase Y in 0.2 ml Trizma buffer (pH 7.4). The experiment was run on NMR phosphorus mode and scanned every half an hour for 6.5 h. The incubation temperature was 37 °C. Recorded data were processed and analyzed with Bruker Topspin 2.1 software.

[4] = test system: cancer patients; design: method as in PMID 18301889, PMID 20563721; conditions: in combination with a low dose of IL-2; cited from earlier work

| Compound | EC50 [1] | half-life at 10 mg/mL [2] | carboxypeptidase Y-mediated breakdown [3] | safety and tolerability in cancer patients [4] |
| --- | --- | --- | --- | --- |
| C/C(=C\CC(F)(F)P(=O)(N[C@@H](C)C(=O)OC(C)C)N[C@@H](C)C(=O)OC(C)C)CO [9b, Diisopropyl 2,2′-((((E)-1,1-difluoro-5-hydroxy-4-methylpent-3-en-1-yl)phosphoryl)bis(azanediyl))(2S,2′S)-dipropionate] | 167 nM | > 7.5 h | not fully metabolised | – |
| CC(O)(CBr)CCOP(=O)(O)OP(=O)(O)O (stereo not shown) [BrHPP, bromohydrin pyrophosphate] | – | – | – | safe and well tolerated |
